Reference: patent US11945779B2, “Inhibitors of cancer metastasis through inhibiting migration and invasion of cancer cells” (VSpharmtech, priority 2018, dated 2024)

What was measured:
[1] = system: colon cancer cell line DLD-1; experiment: Real-time single cell migration imaging (HoloMonitor M4), DLD-1; format: cell-based, human; details: DLD-1, 24 hours, FIG. 7
Description: (§1) An effect of a drug on migration of single cells was confirmed using HoloMonitor M4 (Phase Holographic Imaging), real-time cell migration imaging and analysis equipment. All experiments were performed within a 37° C. cell incubator to analyze cell migration while cells were alive for a long time. To prevent water vapor generated during cell imaging for a long time from obstructing the imaging, the experiment was conducted by dividing cells in an m-slide microcopy chamber (Ibidi). In order to analyze migration of single cells, cells (2.5×10^5 cells/mL) to be analyzed were divided to the m-slide microscopy chamber by 0.2 mL and cultured for more than 12 hours. The cells were sufficiently attached to its original shape and then treated with the drug, and a position to be analyzed was specified, and then the cell migration was measured in real time.
(§2) The cell migration was measured for 24 hours at five-minute intervals, and migration of 25 cells per group was analyzed. Using the HoloMonitor tracking software, a total distance migrated by the cells during the time measured, a linear distance from the starting point to the arrival point, a rate of migration, and a direction were quantitatively analyzed, and the migration of single cells was visualized with a Wind-Rose plot (FIG. 7).

[2] = system: normal cell line MCF-10A; experiment: Real-time single cell migration imaging (HoloMonitor M4), MCF-10A; format: cell-based; details: 24 hours, FIG. 7
Description: as §1, §2

[3] = system: human colon cancer cell line DLD-1; experiment: Lamellipodia formation inhibition (confocal microscope), DLD-1; format: cell-based; details: DLD-1, 6 hours, FIG. 9
Description: A human colon cancer cell line DLD-1, a human pancreatic cancer cell line AsPc-1, a human melanoma cell line A375P, and normal cells MCF10A were each cultured to 1×10^5 cell density on a 35 mm high-m dish plate (ibid GmbH). The cells attached to the plate were washed with phosphate buffered saline (PBS) and then treated with DMSO or CG-618 dissolved in DMSO for 6 hours. After removing the cell culture medium from the plate, the plate was washed two times with PBS and treated with 4% paraformaldehyde dissolved in PBS at room temperature for 10 minutes to immobilize the cells. The plate was washed with PBS once and then treated with 0.2% Triton X-100 at room temperature for 10 minutes to enhance cell permeability. The plate was washed with PBS and treated with 1% BSA dissolved in PBS at room temperature for 1 hour to block non-specific bonds. In order to check the distribution in cells of filament actin (F-actin), phalloidin bound with Alexa Fluor 488, which was specifically bound with F-actin, was treated at room temperature for 15 minutes. The plate was washed with PBS three times and then treated with 2 mg/mL 4′,6′-diamidino-2-phenylindole (DAPAI) dissolved in PBS for two minutes at room temperature to dye the nucleus. The plate was washed with PBS three times and filled with 1 mL PBS. […] The obtained images were analyzed by an analysis program (LSM Version 3.2 software).

[4] = system: human-derived colon cancer cell line (HCT-116 luciferase); experiment: Colon cancer liver metastasis implant model in nude mouse (live animal imaging); format: in vivo; details: for Cancer metastasis inhibitory effect by whole image data: 20 times, five times a week
From the text: In this experiment, a human-derived colon cancer cell line (HCT-116 luciferase) was implanted to the spleen and then the spleen was removed and sutured after four days. In a colon cancer liver metastasis implant model, cancer metastasis inhibitory activity by oral administration of CG-609 was verified using a live animal imaging system. As the animal, an Athymic-NCr NCr-nu SPF 5-week-old nude mouse supplied from Koatech (Pyeongtaek-si, Gyeonggi-do) was used. By adjusting a concentration of cancer cells to 2×10^6 cells/mL, the cell culture solution was injected directly into the spleen using a syringe (31 G needle, ½ cc) by 30 μL per mouse. The drug CG-609 was dissolved to a concentration of 5 mg/kg or 10 mg/kg using 0.5% Tween80 and then orally administered to the mouse in an amount of 10 mL/kg total 20 times on a schedule of five times a week.
HCT-116 luciferase cells were implanted, drug administration started from the day after the cancer cell was implanted, and the cells were imaged a total of seven times until the 25th day, the end of the experiment. During imaging, 50 μL of […] was intraperitoneally administered into each side of the animal's abdomen at a concentration of luciferin 15 mg/mL, and then photographed using an optical imaging system (IVIS-spectrum CT, PerkinElmer). On the final day of the test, the mouse was imaged and then […], and major organs (liver, kidney, and colon) were extracted to be imaged, and then the degree of image signal was measured. The values of all measurement items were tested for statistical significance by comparing a solvent control and a drug administration group using a t-TEST statistical method (FIGS. 10A and 10B).

[5] = system: pancreatic cancer cells CFPAC-1; experiment: Trans-well cancer cell migration inhibition, CFPAC-1; format: cell-based; details: CFPAC-1, concentration not given, FIG. 3
Description: In order to analyze cancer cell migration inhibitory activity of CG-608, CG-609 or CG-618 prepared in Examples 1, 2, or 9, cell migration inhibitory activity was measured using a trans-well by targeting a colon cancer cell line DLD-1 (ATCC-CCL-221), pancreatic cancer cell lines AsPc-1 (ATCC-CCL-1682). CFPAC-1 (ATCC-CCL-1918). Panc-1 (ATCC-CCL-1469), and Miapaca-2 (ATCC-CCL-1420), a skin cancer cell line A375-P (ATCC-CCL-3224), lung cancer cell lines HCC-827 (ATCC-CCL-2868), A549 (ATCC-CCL-185), and NCI-H460 (ATCC-CCL-177), a prostate cancer cell line DU145 (ATCC-HTB-81), a stomach cancer cell line NuGC-3 (JCRB0822), and an ovarian cancer cell line SKOV-3 (ATCC-HTB-77).
First, the number of DLD-1 cells was measured using a hemocytometer in an RPMI medium without FBS. […] After culture, […] of crystal violet (5 mg/mL of 20% […] was added to each well of the 24-well plate and the trans-well was dyed at room temperature for 30 minutes. The dyed trans-well was washed with PBS and non-migrated cells were wiped off with cotton swabs. The prepared sample was photographed with an inverted microscope mounted with a digital camera (TE 300, Nikon. Japan) and then the number of migrated cells was counted. The degree of inhibiting cell migration was calculated by Equation 1 for a group treated with the sample compared to a control group (DMSO). […]

Compound | Migration of single cancer cells (real-time imaging) [1] | Migration of single normal cells (real-time imaging) [2] | Formation of lamellipodia [3] | Colon metastasis inhibitory effect ([4]; 5 mg/kg oral) [%] | Liver metastasis inhibitory effect ([4]; 5 mg/kg oral) [%] | Renal metastasis inhibitory effect ([4]; 5 mg/kg oral) [%] | Cancer metastasis inhibitory effect by whole image data ([4]; 5 mg/kg oral) [%] | Inhibition of cancer metastasis in animal experiment ([4]; 5 mg/kg, 10 times lower dose than benproperine (50 mg/kg), FIGS. 10A and 10B) [%] | Colon metastasis inhibitory effect ([4]; 10 mg/kg oral) [%] | Liver metastasis inhibitory effect ([4]; 10 mg/kg oral) [%] | Renal metastasis inhibitory effect ([4]; 10 mg/kg oral) [%] | Cancer metastasis inhibitory effect by whole image data ([4]; 10 mg/kg oral) [%] | Inhibition of cell migration [5] [%]
CC1CCCCN1C(C)COc1ccccc1Cc1ccccc1 (racemic) [CG-618, 1-(1-(2-benzylphenoxy)propan-2-yl)-2-methylpiperidine] | strongly inhibited | increased | inhibits formation of lamellipodia | – | – | – | – | – | – | – | – | – | –
C[C@H](COc1ccccc1Cc1ccccc1)N1CCCC[C@@H]1C [CG-609, (S)-1-((R)-1-(2-benzylphenoxy)propan-2-yl)-2-methylpiperidine] | – | – | – | 76.9 | 47.7 | 72.4 | 77.9 | ≥ 50 | 85.6 | 58.6 | 76.1 | 80.1 | ≥ 50
